Two molecules from article PMC6444347 (Nature chemistry, 2019) can be followed below.

Experiment [1] has as its target T1, PBP4 (Staphylococcus aureus, UniProt P72355).
T1 sequence (P72355 25-431): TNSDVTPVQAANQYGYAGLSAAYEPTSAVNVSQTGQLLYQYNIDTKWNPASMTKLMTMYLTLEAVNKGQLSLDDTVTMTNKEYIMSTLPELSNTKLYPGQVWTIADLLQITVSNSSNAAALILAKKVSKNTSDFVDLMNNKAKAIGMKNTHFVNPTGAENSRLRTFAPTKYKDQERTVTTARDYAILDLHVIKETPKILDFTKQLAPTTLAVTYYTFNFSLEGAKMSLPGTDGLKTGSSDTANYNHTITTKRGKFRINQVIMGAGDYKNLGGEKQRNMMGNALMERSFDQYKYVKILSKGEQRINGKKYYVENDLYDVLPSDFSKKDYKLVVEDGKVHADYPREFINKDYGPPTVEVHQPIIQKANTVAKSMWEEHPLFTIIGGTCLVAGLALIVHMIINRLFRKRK
The experiment in a line: fluorogenic D,D-transpeptidation assay with Rf470DL, dose-response. Format: biochemical.

Experiment [2] deals with T2, PBP4 (Staphylococcus aureus, UniProt A0A0H2WY27).
T2 sequence (A0A0H2WY27 25-431): T1 sequence (P72355 25-431) with L210H
The experiment in a line: Nitrocefin hydrolysis. Type of experiment: biochemical.

Where a chain is given by its changes, count along the chain named.

Consider `CO[C@@]1(NC(=O)Cc2cccs2)C(=O)N2C(C(=O)O)=C(COC(N)=O)CS[C@@H]21` [Cefoxitin], for which the IC50 against PBP4 [1] is about 2340 nM.
As for `O=C(Cc1cccs1)N[C@@H]1C(=O)N2C(C(=O)O)=C(/C=C/c3ccc([N+](=O)[O-])cc3[N+](=O)[O-])CS[C@H]12` [Nitrocefin], the “Nitrocefin hydrolysis (β-lactamase activity) competition assay” value on PBP4 [2] is on record as “in the presence of Cefoxitin or Carbenicillin, Nitrocefin hydrolysis was strongly inhibited”.
